Like-named read-outs stand apart in the source and are kept apart here.
Assays:
E. coli EC114, ST 131 = experiment: Broth microtiter dilution MIC, EC114; type: cell-based; details: Escherichia coli, TEM-1 (A), CTX-M-15 (A), OXA-1 (D), read-out: MIC (mg/liter) for β-lactam
Protocol: (§1) The in vitro activity of cyclic boronate 2 was assessed using nine clinical isolates carrying multiple β-lactamases (Table 3). The isolates selected included Enterobacteriaceae (E. coli ST 131, Klebsiella pneumoniae ST 258, and Providencia stuartii) producing class A ESBLs (CTX-M-15, CTX-M-27, SHV-5, and VEB-1), serine carbapenemase (KPC-2) and metallo-carbapenemases (VIM-1 and VIM-2), plasmid-mediated AmpC (CMY-2), and/or carbapenem-hydrolyzing OXA-48-like oxacillinases (OXA-181 and OXA-232) in various combinations. The activity against carbapenemase-producing strains of Pseudomonas aeruginosa (VIM-2) and Acinetobacter baumannii (OXA-23) was also investigated. All isolates have previously undergone extensive phenotypic and genotypic characterization ([60]).
(§2) MICs were determined using commercial Sensititre GN4F panels (Thermo Scientific, UK; lot B55051) and Mueller-Hinton II cation-adjusted broth (Oxoid, UK), with and without the addition of cyclic boronate 2 at a fixed concentration of 10 μg/ml. Plates were incubated at 37°C for 18 h and MICs read by eye following the addition of alamarBlue reagent (Trek Diagnostics).

E. coli EC107, ST 131 = experiment: Broth microtiter dilution MIC, EC107; type: cell-based; details: Escherichia coli, CTX-M-15 (A), OXA-1 (D), read-out: MIC (mg/liter) for β-lactam
Protocol: as §1, §2

[1] = test system: P. aeruginosa PA12, ST 111; experiment: Broth microtiter dilution MIC, PA12; type: cell-based; details: Pseudomonas aeruginosa, VIM-2 (B), read-out: MIC (mg/liter) for β-lactam
Protocol: as §1, §2

E. coli EC113, ST 131 = experiment: Broth microtiter dilution MIC, EC113; type: cell-based; details: Escherichia coli, CTX-M-27 (A), read-out: MIC (mg/liter) for β-lactam
Protocol: as §1, §2

P. stuartii PS71 = experiment: Broth microtiter dilution MIC, PS71; type: cell-based; details: Providencia stuartii, TEM-1 (A), SHV-5 (A), VEB-1 (A), VIM-1 (B), read-out: MIC (mg/liter) for β-lactam
Protocol: as §1, §2

A. baumannii AB14 = experiment: Broth microtiter dilution MIC, AB14; type: cell-based; details: Acinetobacter baumannii, OXA-23 (D), OXA-51 (D), read-out: MIC (mg/liter) for β-lactam
Protocol: as §1, §2

E. coli EC86 = experiment: Broth microtiter dilution MIC, EC86; type: cell-based; details: E. coli EC86, CTX-M-15 (A), CMY-4 (C), OXA-181 (D)
Protocol: as §1, §2

K. pneumoniae KP41 = experiment: Broth microtiter dilution MIC, KP41; type: cell-based; details: Klebsiella pneumoniae, TEM-1, SHV-1, SHV-5, SHV-11, CTX-M-15 (A), OXA-232 (D), read-out: MIC (mg/liter) for β-lactam
Protocol: as §1, §2

K. pneumoniae KP15 = experiment: Broth microtiter dilution MIC, KP15; type: cell-based; details: Klebsiella pneumoniae, TEM-1 (A), SHV-11 (A), KPC-2 (A), read-out: MIC (mg/liter) for β-lactam
Protocol: as §1, §2

K. pneumoniae (KP41) = type: cell-based
Protocol: (§3) Combination discs (Oxoid) were prepared with a fixed ratio of 2:1 between the β-lactam (μg) and cyclic boronate 2. Zones of inhibition around combined and unsupplemented discs were compared following overnight incubation on MH II plates.

K. pneumoniae (KP58) = type: cell-based
Protocol: as §3

K. pneumoniae (KP15) = type: cell-based
Protocol: as §3

K. pneumoniae KP58 = experiment: Broth microtiter dilution MIC, KP58; type: cell-based; details: Klebsiella pneumoniae, SHV-11 (A), VIM-4 (B), read-out: MIC (mg/liter) for β-lactam
Protocol: as §1, §2

AmpC = biological target: T1, AmpC (Pseudomonas aeruginosa, UniProt P24735); type: biochemical; details: AmpC-catalysed hydrolysis of the substrate
T1 construct: hexahistidine (pOPINF, 3C-cleavable) (N, cleaved yes); made in house; host or cells: E. coli BL21(DE3)
Protocol: (§4) 45 Steady-state kinetics studies used a Pherastar FS microplate reader with UV-STAR® 96-well,
(§5) 47 black, µclear® plates (Greiner Bio-One) for FC5 (1). Buffers employed were 100 mM
(§6) 48 phosphate buffer pH 7.5, 0.01% (v/v) Triton X-100 for TEM-1, CTX-M-15 and AmpC, 100 mM
(§7) 49 phosphate buffer pH 7.5, 50 mM sodium bicarbonate, 0.01% Triton X-100 for OXA-23 and
(§8) 51 1 µM ZnSO4, 0.01% Triton X-100 for MBL assays. Reaction progress was monitored at 298 K
(§9) 53 intensity (λex = 380 nm, λem = 480 nm) for FC5 (1). Suitable enzyme concentrations for
(§10) 54 kinetic analysis were determined by monitoring changes in absorbance/fluorescence for
(§11) 55 enzyme concentrations between 20 nM and 20 pM.
(§12) Kinetic constants were determined using the initial rate of hydrolysis with the
(§13) 57 reaction initiated through the addition of enzyme to pre-prepared substrate concentrations.
(§14) 58 Substrate concentrations ranged between 400 µM and 0.4 µM. The Michaelis-Menten
(§15) 59 equation was fitted to data by non-linear regression using GraphPad Prism software to
(§16) 60 calculate the Michaelis-Menten constant and the limiting rate (2).

OXA-48 = biological target: T2, OXA-48 (Klebsiella pneumoniae, UniProt Q6XEC0); type: biochemical; details: OXA-48-catalysed hydrolysis of the substrate
T2 construct: hexahistidine (pOPINF, 3C-cleavable) (N, cleaved yes); made in house; host or cells: E. coli BL21(DE3)
Protocol: as §4, §5, §6, §7, §8, §9, §10, §11, §12, §13, §14, §15, §16

OXA-23 = biological target: T3, OXA-23 (Acinetobacter baumannii, UniProt Q9L4P2); type: biochemical; details: OXA-23-catalysed hydrolysis of the substrate
T3 construct: hexahistidine (pOPINF, 3C-cleavable) (N, cleaved yes); made in house; host or cells: E. coli BL21(DE3)
Protocol: as §4, §5, §6, §7, §8, §9, §10, §11, §12, §13, §14, §15, §16

CTX-M-15 = biological target: T4, CTX-M-15 (Escherichia coli, UniProt Q9EXV5); type: biochemical, E. coli; details: CTX-M-15-catalysed hydrolysis of the substrate
T4 construct: hexahistidine (pOPINF, 3C-cleavable) (N, cleaved yes); made in house; host or cells: E. coli BL21(DE3)
Protocol: as §4, §5, §6, §7, §8, §9, §10, §11, §12, §13, §14, §15, §16

VIM-1 = biological target: T5, VIM-1 (Pseudomonas aeruginosa, UniProt A0A0F7KYQ8); experiment: FC5 fluorogenic metallo-β-lactamase inhibition assay, VIM-1; type: biochemical; details: pH 7.5, FC5 substrate, read-out: IC50, μM (mean ± SD) for VIM-1, pH 7.5
T5 construct: His tag (3C-cleavable) (C, cleaved yes); made in house
From the text: (§17) To investigate the extent to which cyclic boronates inhibit class C β-lactamases as well as the important class A ESBL and class D carbapenemase targets, we used a fluorogenic assay ([22]) to screen the cyclic boronates, which we have found to inhibit other β-lactamases ([21]), against them. The β-lactamases used for screening included TEM-1 and CTX-M-15 (class A), the metallo-β-lactamase (MBL) from Bacillus cereus (BcII), Verona integron-encoded metallo-β-lactamase 1 (VIM-1) (class B), AmpC from P. aeruginosa (class C), and OXA-23 and OXA-48 (class D), collectively representing all classes of β-lactamase.
(§18) We also screened the cyclic boronates against the model MBL, BcII, and VIM-1 using the FC5-based fluorogenic assay ([22]).
(§19) Inhibition assays were carried out using FC5 as a fluorogenic reporter substrate ([22]). Enzyme concentrations and buffers were the same as those employed in steady-state kinetic studies (see Table S2 in the supplemental material). […] The concentration of FC5 employed was 10 μM for TEM-1 and 5 μM for all other enzymes. […] Data at 0 min of incubation were obtained by addition of enzyme to a premixed solution of inhibitor and substrate. Residual enzyme activity was determined for a range of inhibitor concentrations. Nonlinear regression fitting of IC50 curves was carried out using a three-parameter dose-response curve in GraphPad Prism. Errors in IC50 are expressed as [σ(log IC50)/log IC50)] × IC50.
as §4
(§20) 47 black, µclear® plates (Greiner Bio-One) for FC5 (1). […]
as §8, §9, §10
(§21) 55 enzyme concentrations between 20 nM and 20 pM. […]

BcII = BcII (Bacillus cereus, UniProt P04190); experiment: FC5 fluorogenic metallo-β-lactamase inhibition assay, BcII; type: biochemical; details: FC5 substrate
From the text: as §17, §18, §19, §4, §20, §8, §9, §10, §21

[2] = with cyclic boronate 2 (10 mg/liter) supplementation
[3] = without cyclic boronate 2 supplementation

Sequence of BcII (P04190 31-257): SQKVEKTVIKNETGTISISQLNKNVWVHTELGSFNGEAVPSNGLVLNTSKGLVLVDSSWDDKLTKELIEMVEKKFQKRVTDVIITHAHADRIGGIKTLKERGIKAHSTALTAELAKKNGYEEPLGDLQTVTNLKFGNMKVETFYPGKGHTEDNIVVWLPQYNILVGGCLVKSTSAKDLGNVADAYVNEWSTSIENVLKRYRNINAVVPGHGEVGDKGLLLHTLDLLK
T2 sequence (Q6XEC0 23-265 limits assumed): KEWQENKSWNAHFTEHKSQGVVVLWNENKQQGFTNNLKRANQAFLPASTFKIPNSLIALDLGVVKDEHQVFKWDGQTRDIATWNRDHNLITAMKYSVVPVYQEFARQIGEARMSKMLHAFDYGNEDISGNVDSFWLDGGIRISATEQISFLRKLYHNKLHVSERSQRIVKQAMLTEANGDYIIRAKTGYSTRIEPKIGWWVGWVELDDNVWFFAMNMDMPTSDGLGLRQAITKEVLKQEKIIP
T1 sequence (P24735 27-397): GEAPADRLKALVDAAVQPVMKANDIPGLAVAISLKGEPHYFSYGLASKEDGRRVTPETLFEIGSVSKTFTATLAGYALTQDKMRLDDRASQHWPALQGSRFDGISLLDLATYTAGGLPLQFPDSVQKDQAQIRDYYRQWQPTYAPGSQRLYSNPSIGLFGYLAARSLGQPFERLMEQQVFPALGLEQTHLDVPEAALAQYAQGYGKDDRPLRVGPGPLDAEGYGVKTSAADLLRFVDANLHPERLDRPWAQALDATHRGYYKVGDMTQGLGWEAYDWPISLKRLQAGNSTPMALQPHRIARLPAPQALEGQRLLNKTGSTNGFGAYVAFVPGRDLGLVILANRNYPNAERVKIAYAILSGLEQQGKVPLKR
T3 sequence (Q9L4P2 18-273): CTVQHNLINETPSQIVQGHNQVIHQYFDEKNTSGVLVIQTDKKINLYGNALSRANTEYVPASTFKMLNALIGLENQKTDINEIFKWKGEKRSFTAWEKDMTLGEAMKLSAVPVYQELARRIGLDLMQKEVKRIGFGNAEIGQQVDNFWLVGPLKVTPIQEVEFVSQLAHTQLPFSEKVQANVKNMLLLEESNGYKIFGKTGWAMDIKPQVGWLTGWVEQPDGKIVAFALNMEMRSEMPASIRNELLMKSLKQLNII
T4 sequence (Q9EXV5 entry or part of it): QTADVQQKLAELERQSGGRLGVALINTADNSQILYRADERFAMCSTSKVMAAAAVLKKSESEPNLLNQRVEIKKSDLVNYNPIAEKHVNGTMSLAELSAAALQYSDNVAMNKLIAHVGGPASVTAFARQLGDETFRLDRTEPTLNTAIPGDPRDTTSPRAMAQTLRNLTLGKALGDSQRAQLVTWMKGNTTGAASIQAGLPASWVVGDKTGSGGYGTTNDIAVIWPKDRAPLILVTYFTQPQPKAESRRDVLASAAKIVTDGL

CCN1CCN(C(=O)N[C@@H](C(=O)N[C@@H]2C(=O)N3[C@@H]2SC(C)(C)[C@@H]3C(=O)O)c2ccccc2)C(=O)C1=O [PIP, piperacillin]
MIC (E. coli EC114, ST 131; [2]): > 64 mg/L | MIC (E. coli EC114, ST 131; [3]): > 64 mg/L | MIC (E. coli EC107, ST 131; [2]): > 64 mg/L | MIC (E. coli EC107, ST 131; [3]): > 64 mg/L | MIC [1, 2]: 64 mg/L | MIC [1, 3]: > 64 mg/L | MIC (E. coli EC113, ST 131; [2]): ≤ 16 mg/L | MIC (E. coli EC113, ST 131; [3]): > 64 mg/L | MIC (P. stuartii PS71; [2]): > 64 mg/L | MIC (P. stuartii PS71; [3]): > 64 mg/L | MIC (A. baumannii AB14; [2]): > 64 mg/L | MIC (A. baumannii AB14; [3]): > 64 mg/L | MIC (mg/liter) for β-lactam (E. coli EC86; [3]): >64 mg/L | MIC (E. coli EC86; Escherichia coli, with cyclic boronate 2 (10 mg/liter) supplementation, read-out: MIC (mg/liter) for β-lactam): > 64 mg/L | MIC (K. pneumoniae KP41; [2]): > 64 mg/L | MIC (K. pneumoniae KP41; [3]): > 64 mg/L | MIC (K. pneumoniae KP15; [2]): > 64 mg/L | MIC (K. pneumoniae KP15; [3]): > 64 mg/L | Synergy When Combined with (2): Fixed 2:1 µg Ratio (K. pneumoniae (KP41)): N | Synergy When Combined with (2): Fixed 2:1 µg Ratio (K. pneumoniae (KP58)): Y | Synergy When Combined with (2): Fixed 2:1 µg Ratio (K. pneumoniae (KP15)): Y | MIC (K. pneumoniae KP58; [2]): > 64 mg/L | MIC (K. pneumoniae KP58; [3]): > 64 mg/L

O=C(Cc1ccccc1)N[C@@H]1C(=O)N2C(C(=O)O)=C(COc3ccc4ccc(=O)oc4c3)CS(=O)(=O)[C@H]12 [FC5]
Km (AmpC): 600 ± 220 µM | kcat (AmpC): 500 ± 160 s⁻¹ | Km (OXA-48): 420 ± 50 µM | kcat (OXA-48): 28 ± 2 s⁻¹ | Km (OXA-23): 500 ± 130 µM | kcat (OXA-23): 38 ± 7 s⁻¹ | Km (CTX-M-15): 170 ± 20 µM | kcat (CTX-M-15): 1100 ± 100 s⁻¹

O=C(O)C(S)c1ccccc1 (racemic) [(±)-Thiomandelic acid, thiomandelic acid]
IC50 (VIM-1; preincubation 0 min): 0.38 ± 0.03 µM | IC50 (VIM-1; preincubation 10 min): 0.45 ± 0.02 µM | IC50 (VIM-1; preincubation 30 min): 0.8 ± 0.9 µM | IC50 (VIM-1; preincubation 60 min): 1.4 ± 0.9 µM | IC50 (VIM-1; preincubation 360 min): 2 ± 1 µM | IC50 (BcII; pH 6.5, preincubation 0 min, read-out: IC50, μM (mean ± SD) for BcII, pH 6.5): 0.27 ± 0.06 µM | IC50 (BcII; pH 6.5, preincubation 10 min, read-out: IC50, μM (mean ± SD) for BcII, pH 6.5): 0.9 ± 0.1 µM | IC50 (BcII; pH 6.5, preincubation 30 min, read-out: IC50, μM (mean ± SD) for BcII, pH 6.5): 0.5 ± 0.1 µM | IC50 (BcII; pH 6.5, preincubation 60 min, read-out: IC50, μM (mean ± SD) for BcII, pH 6.5): 2 ± 1 µM | IC50 (BcII; pH 6.5, preincubation 360 min, read-out: IC50, μM (mean ± SD) for BcII, pH 6.5): 2 ± 1 µM | IC50 (BcII; pH 7.5, preincubation 0 min, read-out: IC50, μM (mean ± SD) for BcII, pH 7.5): 0.3 ± 0.03 µM | IC50 (BcII; pH 7.5, preincubation 10 min, read-out: IC50, μM (mean ± SD) for BcII, pH 7.5): 0.39 ± 0.05 µM | IC50 (BcII; pH 7.5, preincubation 30 min, read-out: IC50, μM (mean ± SD) for BcII, pH 7.5): 0.33 ± 0.04 µM | IC50 (BcII; pH 7.5, preincubation 60 min, read-out: IC50, μM (mean ± SD) for BcII, pH 7.5): 0.5 ± 0.2 µM | IC50 (BcII; pH 7.5, preincubation 360 min, read-out: IC50, μM (mean ± SD) for BcII, pH 7.5): 2 ± 1 µM
